Literature values in publication PMC12694011, “Update and ADMET Profile of the Latin American Natural Product Database: LANaPDB” (Molecular Informatics, 2025).

Legend:
[1] = test system: hERG channel
[2] = design: method as in PMID 19947605; conditions: amphoteric drugs

SMILES | hERG channel blocking (in words) [1] | paracellular transport (in words) [2]
OCCN1CCN(CCCN2c3ccccc3Sc3ccc(Cl)cc32)CC1 [perphenazine] | potent hERG channel blockers | –
N[C@@H]1[C@H]2CN(c3nc4c(cc3F)c(=O)c(C(=O)O)cn4-c3ccc(F)cc3F)C[C@@H]12 [trovafloxacin] | – | undergo extensive paracellular transport
O=c1[nH]c2ccccc2n1C1CCN(CCCC(c2ccc(F)cc2)c2ccc(F)cc2)CC1 [pimozide] | potent hERG channel blockers | –
CC1(C)S[C@@H]2[C@H](/N=C/N3CCCCCC3)C(=O)N2[C@H]1C(=O)O [amdinocillin] | – | undergo extensive paracellular transport
Nc1nc(O)c2ncn(COC(CO)CO)c2n1 [ganciclovir] | – | undergo extensive paracellular transport
Fc1ccc(C(c2ccc(F)cc2)N2CCN(C/C=C/c3ccccc3)CC2)cc1 [flunarizine] | potent hERG channel blockers | –
CN1C(C(=O)Nc2ccccn2)=C(O)c2ccccc2S1(=O)=O [piroxicam] | – | undergo extensive paracellular transport
